Consider 7 compounds from patent publication US20220062173A1, “LIQUID COMPOSITIONS” (JOHNSON & JOHNSON CONSUMER INC., priority 2019, published 2022).

“Also recorded” adds a separate entry of the source.

One series has as its system oral cavity. Description: Taste-test evaluation of cooling sensates in base cough-cold liquid. Type of series: in vivo. The note with it: for Cooling site: area within the oral cavity where cooling could be felt; for Cooling Intensity: sensate in base cough-cold liquid at the listed addition level. On the procedure: Various polymeric additives were combined into a base cough-cold liquid formula to determine interaction, and included various grades of Avicel®, CMC, HPMC among others. A synergistic effect was observed when Poloxamer was also included in the formulation containing above mentioned rheology modifier and a cooling flavor. A cooling sensation in the back of the throat could be felt, and the sensation lasted longer (approximately 5-10 min or even longer in some instances). […] The presence of just the viscosity modifiers and no Poloxamer, the same flavor did provide targeted cooling, but the extent and duration was less.
(§1) Cooling sensate samples were requested from various flavor suppliers and were included into the formulation at a level recommended by the manufacturer and evaluated by various individuals in terms of cooling efficiency/intensity, area within the oral cavity where cooling could be felt, cooling onset time, and duration of cooling. It was interesting to see that all the sensate provided different degree of cooling and the area within the oral cavity where cooling could be felt was different.
Mixing Procedure: The following procedure was used to mix the materials in Table 3. The formulation was prepared by adding purified water to a suitable vessel. The Avicel RC591 was then added while mixing using a high shear mixer until dissolved, followed by addition of propylene glycol while mixing using a propeller mixer at about 500-1000 RPM. The rest of the ingredients were added and mixed at approximately 50-100 RPM for at least 30 minutes. After complete dissolution, the solution was heated using a water bath to a temperature between […] for 15 minutes while continuously stirring. The solution was cooled to room temperature before adding propylene glycol while mixing. The rest of the ingredients were added and mixed for at least 30 minutes.

The next series concerns throat. The series is described as follows: Additional cooling evaluation, targeted throat cooling. Type of series: in vivo. The note with it: Yes/No.
Text: as §1

Series [1] is described as follows: Solution conductivity measurement. Type of series: physicochemical. The procedure:
Conductivity of solutions containing Poloxamer-188 and Cooler #2 in purified water at different concentrations was measured using a MultiLab 4010-2 conductivity meter with an IDS 4320 Conductivity and Temperature Sensor.
It is important to note that the solutions turned cloudy once Cooler #2 was added to the solution, indicating formation of an emulsion. The turbidity of the solutions was not very different as the level of Cooler #2 was increased.
Conductivity of the Water-PG solutions containing 0.35% CMC and 0.35% HPMC was also measured in water and in combination with Cooler #2 and Poloxamer. The conductivity results are summarized below in Table 5.

The conditions of series [2]: solvents named; cited from earlier work.

With `CC(C)[C@@H]1CC[C@@H](C)C[C@H]1OC(=O)CCCC(=O)O` (stereo in doubt) [Cooler #2, Monomenthyl Glutarate], in the series with oral cavity, the Synergistic sensate effect result was “Did work, providing synergistic sensate effect”; the Cooling site entry is “all the cooling was in the back of the throat”; the “Cooling Intensity” value is “Mild to medium cooling”. Moreover, the Cooling site entry in the series with oral cavity (listed as IFF cooler #2) is on record as “Throat”. In addition, the Duration with oral cavity (duration of cooling) fell in the range of 7 to 9 min. Also, in the series on oral cavity (overall taste evaluation), the Overall entry is “Cooling concentrated towards the back of the throat, intensity grows with time and duration longer than others”. In addition, the Onset time in the series on oral cavity (values in secs) was roughly 30 s. The “Targeted Throat Cooling” value in the series on throat is “Yes”. For the same compound, in series [1] (0.05% of Cooler #2, 0.4% Poloxamer, Water-5% propylene glycol, about 7.4 without cooler), the Conductivity entry was “about 35 μS/cm”. Besides, the “Effect on conductivity of the solution” value in series [1] (purified water, Poloxamer-188 0.2% to 2.0%, 0.15% of Cooler #2) was “significant effect on the conductivity of the solution at lower concentrations of Poloxamer-188”. The Solubility entry in series [2] is “Ethanol and Propylene Glycol, insoluble in Water”.
Consider `CC(C)[C@@H]1CC[C@@H](C)C[C@H]1O` [Menthol, (1R,2S,5R)-2-isopropyl-5-methylcyclohexanol, reference compound], for which the Duration in the series on oral cavity (Table 3) is 5 to 6 min. For the same compound, the Overall entry in the series with oral cavity (Table 3) is “Cooling”; in the series with oral cavity (overall taste evaluation), “Cooling noticeable on tongue and front of the mouth and throat”. The “Onset time” value is roughly 10 s with oral cavity (Table 3, values in secs) and “Immediate” in the series on oral cavity (in words). Moreover, in the series with oral cavity, the Cooling site result is “Throat and some in oral cavity tongue and front of the mouth”. The “Cooling Intensity” value in the series with oral cavity is reported as “Intense cooling”. Moreover, the “Targeted Throat Cooling” value with throat is given as “No”.
Take `CC(O)C(=O)O[C@@H]1C[C@H](C)CC[C@H]1C(C)C` (stereo partly shown) [Symcool NAT, Menthyl Lactate]: in the series on oral cavity, the Synergistic sensate effect result was “Did work, providing synergistic sensate effect”; the Cooling site result is “cooling in mouth, tongue along with some cooling in the back of the throat; also recorded: Tongue and some throat cooling”; the “Cooling Intensity” value is “medium cooling”. Besides, in the series on oral cavity (Table 3), the Duration is 5 to 6 min and the Overall entry was “Medium”. In the series with oral cavity (Table 3, values in secs), the “Onset time” value was roughly 10 s. Further, the Onset time entry in the series with oral cavity (in words) is on record as “immediate”. Further, the Overall entry with oral cavity (overall taste evaluation) was “Liquorish taste and cooling in the mouth and towards the back of the throat, cooling in throat as you breath in, intensity grows with time”. For the same compound, the “Targeted Throat Cooling” value in the series on throat is “Yes”. Also, the Solubility result in series [2] was “Propylene glycol, ethanol”.
Turning to `COc1ccc(NC(=O)[C@@H]2C[C@H](C)CC[C@H]2C(C)C)cc1` [WS 12, (1R,2S,5R)-N-(4-methoxyphenyl)-5-methyl-2-(1-methylethyl) cyclohexanecarboxamide], in the series with oral cavity (Table 3), the Duration lay within 5 to 7 min and the Overall result is reported as “Mild cooling”. Besides, in the series with oral cavity (Table 3, values in min), the “Onset time” value lay in the range of 60 to 120 s. Further, in the series on oral cavity, the Cooling site entry was “mostly tongue and some in upper throat”; the “Cooling Intensity” value was “Mild Cooling”. In the series with oral cavity (overall taste evaluation), the Overall result was “Mild cooling noticeable on tongue and some back of the throat”. In addition, the “Targeted Throat Cooling” value in the series with throat is “No”.
As to `CNC(=O)C(C)(C(C)C)C(C)C` [WS 23, 2-isopropyl-N,2,3-trimethylbutyramide], in the series on oral cavity (Table 3), the Duration lay in the range of 3 to 4 min and the Overall entry is “Mild cooling”. The “Onset time” value in the series on oral cavity (Table 3, values in secs) was roughly 10 s. For the same compound, in the series on oral cavity, the Cooling site result was “tongue and front of the mouth”; the “Cooling Intensity” value was “Mild Cooling, less than WS-3 and WS-5”. Further, the Overall result in the series with oral cavity (overall taste evaluation) was “Mild cooling noticeable on tongue, and front of the mouth, tingling and nose cooling as you breath out”. For the same compound, the Onset time in the series with oral cavity (values in secs) was roughly 10 s. In addition, in the series with throat, the “Targeted Throat Cooling” value is reported as “No”.
Consider `CCNC(=O)[C@@H]1C[C@H](C)CC[C@H]1C(C)C` [WS-3, N-ethyl 2-isopropyl-5-methylcyclohexanecarboxamide], for which, in the series with oral cavity, the Synergistic sensate effect result was “Did work, providing synergistic sensate effect”; the Cooling site result is recorded as “cooling in mouth, tongue along with some cooling in the back of the throat”; the “Cooling Intensity” value is given as “Intense Cooling, more intense than WS-5”. For the same compound, in the series on oral cavity (Table 3), the Duration lay within 4 to 5 min and the Overall entry is given as “Intense”. Besides, the “Onset time” value with oral cavity (Table 3, values in secs) was roughly 10 s. Also, in the series with oral cavity (listed as Symcool®WS-3), the Cooling site entry is “towards the back on mouth, upper throat, and tongue”. Also, the Overall entry with oral cavity (overall taste evaluation) is “Intense cooling noticeable all around, tongue, and upper throat, sweeter sensation like menthol”. In addition, in the series with oral cavity (values in secs), the Onset time is roughly 10 s. Moreover, the “Targeted Throat Cooling” value with throat is “Yes”. Moreover, the Solubility result in series [2] is listed as “Propylene Glycol, ethanol, insoluble in water”.
As for `CCOC(=O)CNC(=O)[C@@H]1C[C@H](C)CC[C@H]1C(C)C` [WS-5, N-[(ethoxycarbonyl)methyl)-p-menthane-3-carboxamide], the Synergistic sensate effect result in the series on oral cavity is given as “Did work, providing synergistic sensate effect”. Moreover, the Duration in the series with oral cavity (Table 3) and in the series on oral cavity (duration of cooling) was 6 to 7 min in each case. In addition, the Overall entry in the series with oral cavity (Table 3) was “Intense cooling”; with oral cavity (overall taste evaluation), “Intense cooling noticeable all around the oral cavity, tongue, and upper throat”. For the same compound, the “Onset time” value was roughly 10 s in the series with oral cavity (Table 3, values in secs) and roughly 10 s in the series with oral cavity (values in secs). Moreover, the Cooling site result was “cooling in mouth, tongue along with some cooling in the back of the throat” with oral cavity; “towards the back on mouth, upper throat, and tongue” in the series with oral cavity (listed as Symcool WS-5). Also, the “Cooling Intensity” value in the series on oral cavity is given as “Intense Cooling”. Also, the “Targeted Throat Cooling” value in the series with throat is reported as “Yes”. Besides, the Solubility entry in series [2] is recorded as “Propylene Glycol, ethanol, insoluble in water”.
